{"source": "patent US7071165B2", "about": "“LHRH antagonist peptides” (Indiana University Research and Technology Corporation, priority 1995, dated 2006)", "key": {"[1]": {"conditions": "cited from earlier work"}, "ovulation in female rats [2]": {"test_system": "ovulation in female rats", "assay": "Anti-ovulatory activity (AOA) in vivo assay in rats", "conditions": "dose 0.5 μg per rat"}, "rat mast cells": {"test_system": "rat mast cells", "assay": "Histamine release assay, rat mast cells", "protocol": "The term “histamine-releasing activity”, as used herein, refers to the tendency of a compound to release histamine when administered to a subject. The histamine-releasing activity of a compound can be measured with an in vitro assay (described in more detail, infra). […] Histamine-releasing activity was assayed by the method described in U.S. Pat. No. 4,851,385 to Roeske. Briefly, a suspension of rat mast cells was added to increasing concentrations of an LHRH antagonist peptide and incubated for 15 minutes at 37° C. The buffer contained 25 mM PIPES, pH 7.4, NaCl (119 mM), KCl (5 mM), NaOH (40 mM) glucose (5.6 mM), CaCl2 (1 mM) and 0.1% bovine serum albumin."}, "ovulation in female rats [3]": {"test_system": "ovulation in female rats", "assay": "Anti-ovulatory activity (AOA) in vivo assay in rats", "parameters": "species or system rat", "conditions": "for AO activity (AOA), in words: rat, in vivo", "outline": "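Female rats dosed on proestrus day with test peptide dissolved in 0.1% DMSO. Read-out is the number of rats that ovulate; antagonist activity is defined as blocking ovulation in at least 50% of treated rats at a dose of 5 μg per rat.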"}, "plasma testosterone [4]": {"test_system": "plasma testosterone", "assay": "Suppression of plasma testosterone, continuous subcutaneous infusion via osmotic pump (FIG. 2, FIG. 3)", "assay_type": "in vivo, rat", "protocol": "FIG. 2 is a graph depicting plasma testosterone levels (in ng/ml) in adult male rats subcutaneously administered the LHRH antagonist #3827 via an osmotic pump. Doses were either 300 μg/kg/day for two weeks, followed by 15 μg/kg/day for an additional two weeks or 1000 μg/kg/day for two weeks, followed by 5, 15 or 50 μg/kg/day for an additional two weeks.\nFIG. 3 is a graph depicting the plasma testosterone levels (in ng/ml) in adult male rats subcutaneously administered the LHRH antagonist #3827 via an osmotic pump. Doses were either 30 μg/kg/day for two weeks, followed by 5 μg/kg/day for an additional two weeks, 100 μg/kg/day for two weeks, followed by 5 μg/kg/day for an additional two weeks. or 300 μg/kg/day for two weeks, followed by 0 or 5 μg/kg/day for an additional two weeks.\nIn another experiment, continuous subcutaneous infusion of the LHRH antagonist # 3827 was achieved through use of an osmotic pump. Doses of 300 or 1000 μg/kg/day (“High Dose”) were administered subcutaneously for two weeks via Alzet osmotic minipumps in each of five male Sprague-Dawley rats. The animals that received 1000 μg/kg/day were then maintained for an additional two weeks with 5, 15 or 50 μg/kg/day (“Low Dose”) before the pumps were removed completely. The results are shown graphically in FIG. 2."}, "plasma testosterone [5]": {"test_system": "plasma testosterone", "assay": "Suppression of plasma testosterone, single subcutaneous injection", "assay_type": "in vivo, rat", "conditions": "adult male rats", "protocol": "The ability of an LHRH antagonist of the invention to suppress plasma testosterone levels was examined in adult male rats. In one experiment, a single injection of LHRH antagonist was administered subcutaneously at doses of 300 or 1000 μg/kg. […] Testosterone levels returned to normal by 24 hours after the 300 μg/kg dose, but not until 72 hours after the 1000 μg/kg dose."}, "plasma testosterone [6]": {"test_system": "plasma testosterone", "assay": "Suppression of plasma testosterone, eight doses every three hours (FIG. 1)", "assay_type": "in vivo, rat", "conditions": "adult male rats", "protocol": "FIG. 1 is a graph depicting plasma testosterone levels (in ng/ml) in adult male rats administered eight subcutaneous injections of the LHRH antagonist #3827, one injection every three hours, at doses of 1, 10 or 100 μg/kg.\nIn another experiment, the LHRH antagonist #3827 was administered in eight […] doses of 1, 10 or 100 μg/kg, each every three hours, corresponding respectively to 8, 80 or 800 μg/kg/day. The results are shown graphically in FIG. 1."}, "[7]": {"conditions": "footnote a: run with Nal arg reference 0.11"}, "[8]": {"conditions": "footnote b: run with Nal arg reference 0.14"}, "[9]": {"conditions": "rat mast cells, 15 minutes at 37° C."}, "[10]": {"conditions": "follow up study, FIG. 3, osmotic pump s.c."}}}
{"molecule": "c1ccc2ccccc2c1", "note": "[naphthalene]", "values": [{"measurement": "measured log P (octanol/water)", "setting": "[1]", "value": 3.45}]}
{"molecule": "Oc1ccc2ccccc2c1", "note": "[β-naphthol]", "values": [{"measurement": "measured log P (octanol/water)", "setting": "[1]", "value": 2.84}]}
{"molecule": "Ac-D-Nal^1, 4-Cl-D-Phe^2, D-Pal^3, 4-Cl-Phe^5, D-Pal(iPr)^6, Lys(iPr)^8, D-Ala^10-LHRH.2TFA [Compound 3851]", "values": [{"measurement": "AO activity (AOA): rats which ovulate / rats treated", "setting": "ovulation in female rats [2]", "value": "6/8@0.5"}, {"measurement": "Histamine release ED50", "setting": "rat mast cells; [7]", "value": 4.1, "unit": "µg/mL"}, {"measurement": "Histamine release ED50", "setting": "rat mast cells; [8]", "value": 5.4, "unit": "µg/mL"}, {"measurement": "AO activity (AOA): rats which ovulate / rats treated", "setting": "ovulation in female rats [3]; dose 1 μg per rat", "value": "0/8@1.0"}, {"measurement": "AO activity (AOA), in words", "setting": "ovulation in female rats [3]", "value": "unexpectedly active"}]}
{"molecule": "Ac-D-Nal^1, 4-Cl-D-Phe^2, D-Pal^3, D-Arg^6, Met(S^+Me)^8, D-Ala^10-LHRH.2TFA [Compound 3983]", "values": [{"measurement": "AO activity (AOA): rats which ovulate / rats treated", "setting": "ovulation in female rats [2]", "value": "8/8@0.5"}, {"measurement": "Histamine release ED50", "setting": "rat mast cells; footnote g: run with Nal arg reference 0.1", "value": 5.35, "unit": "µg/mL"}, {"measurement": "Histamine release ED50", "setting": "rat mast cells; footnote h: run with Nal arg reference 0.02", "value": 1.32, "unit": "µg/mL"}, {"measurement": "AO activity (AOA): rats which ovulate / rats treated", "setting": "ovulation in female rats [3]; dose 1 μg per rat", "value": "0/8@1.00"}, {"measurement": "AO activity (AOA), in words", "setting": "ovulation in female rats [3]", "value": "high AOA"}]}
{"molecule": "Ac-D-Nal^1, 4-Cl-D-Phe^2, D-Pal^3, D-Arg^6, Orn(COCH2S^+Me2)^8, D-Ala^10, LHRH.2TFA [Compound 3985]", "values": [{"measurement": "AO activity (AOA): rats which ovulate / rats treated", "setting": "ovulation in female rats [2]", "value": "8/8@0.5"}, {"measurement": "Histamine release ED50", "setting": "rat mast cells; [7]", "value": 4.4, "unit": "µg/mL"}, {"measurement": "Histamine release ED50", "setting": "rat mast cells; [8]", "value": 3.86, "unit": "µg/mL"}, {"measurement": "AO activity (AOA): rats which ovulate / rats treated", "setting": "ovulation in female rats [3]; dose 1 μg per rat", "value": "0/8@1.00"}]}
{"molecule": "Ac-D-Nal^1, 4-Cl-D-Phe^2, D-Pal^3, D-Lys(Glc)^6-Lys(iPr)^8, D-Ala^10-LHRH.TFA [Compound 3423A]", "values": [{"measurement": "AO activity (AOA): rats which ovulate / rats treated", "setting": "ovulation in female rats [2]", "value": "7/10@0.5 μg"}, {"measurement": "Histamine release ED50", "setting": "rat mast cells; [9]", "value": 52, "unit": "µg/mL"}, {"measurement": "AO activity (AOA): rats which ovulate / rats treated", "setting": "ovulation in female rats [3]; dose 1 μg per rat", "value": "2/10@1 μg"}, {"measurement": "AO activity (AOA): rats which ovulate / rats treated", "setting": "ovulation in female rats [3]; dose 2 μg per rat", "value": "0/10@2 μg"}]}
{"molecule": "Ac-D-Nal^1, 4-Cl-D-Phe^2, D-Pal^3, D-Met(S^+CH3)^6, D-Ala^10-LHRH.2TFA [Compound 3967]", "values": [{"measurement": "AO activity (AOA): rats which ovulate / rats treated", "setting": "ovulation in female rats [2]", "value": "1/8@0.5"}, {"measurement": "Histamine release ED50", "setting": "rat mast cells; footnote e: run with Nal arg reference 0.1", "value": 0.38, "unit": "µg/mL"}, {"measurement": "Histamine release ED50", "setting": "rat mast cells; footnote f: run with Nal arg reference 0.02", "value": 0.15, "unit": "µg/mL"}, {"measurement": "AO activity (AOA): rats which ovulate / rats treated", "setting": "ovulation in female rats [3]; dose 0.25 μg per rat", "value": "7/8@0.25"}]}
{"molecule": "Ac-D-Nal^1, 4-Cl-D-Phe^2, D-Pal^3, D-Pal(Bzl)^6, Lys(iPr)^8, D-Ala^10-LHRH.TFA [Compound 3429]", "values": [{"measurement": "AO activity (AOA): rats which ovulate / rats treated", "setting": "ovulation in female rats [2]", "value": "4/8@0.5 μg"}, {"measurement": "Histamine release ED50", "setting": "rat mast cells; [9]", "value": 6.0, "unit": "µg/mL"}, {"measurement": "AO activity (AOA): rats which ovulate / rats treated", "setting": "ovulation in female rats [3]; dose 1 μg per rat", "value": "0/8@1 μg"}]}
{"molecule": "Ac-D-Nal^1, 4-Cl-D-Phe^2, D-Pal^3, N-Me-Tyr^5, D-Asn^6, Lys(iPr)^8, D-Ala^10-LHRH.TFA [Compound 3827]", "values": [{"measurement": "castration during Low Dose maintenance", "setting": "plasma testosterone [4]; after High Dose two weeks, Low Dose pumps 5, 15 or 50 μg/kg/day, as low as 5 μg/kg/day", "value": "remained fully castrated"}, {"measurement": "recovery in plasma testosterone following completion of treatment", "setting": "plasma testosterone [4]; by maintenance dose", "value": "dose dependent recovery"}, {"measurement": "dose achieving complete suppression of testosterone to castrate levels (as low as)", "setting": "plasma testosterone [4]; [10]", "value": "≤ 30", "unit": "µg/kg/day"}, {"measurement": "dose maintaining castrate levels (as low as)", "setting": "plasma testosterone [4]; [10]", "value": "≤ 5", "unit": "µg/kg/day"}, {"measurement": "time to castrate levels of testosterone", "setting": "plasma testosterone [4]; male Sprague-Dawley rats, osmotic pump s.c., initial dose 300 or 1000 μg/kg/day", "value": "≤ 7", "unit": "days"}, {"measurement": "castration response during chronic treatment", "setting": "plasma testosterone [4]; osmotic pump s.c.", "value": "no apparent “castration response”"}, {"measurement": "recovery of testosterone levels following pump removal", "setting": "plasma testosterone [4]; rat, in vivo", "value": "complete within two weeks"}, {"measurement": "time until testosterone levels returned to normal", "setting": "plasma testosterone [5]; single s.c. 300 μg/kg", "value": "≤ 24", "unit": "h"}, {"measurement": "time until testosterone levels returned to normal", "setting": "plasma testosterone [5]; single s.c. 1000 μg/kg", "value": 72, "unit": "h"}, {"measurement": "plasma testosterone", "setting": "plasma testosterone [5]; single s.c. injection 300 or 1000 μg/kg, by 6 hours post-administration", "value": "nearly undetectable levels"}, {"measurement": "plasma testosterone", "setting": "plasma testosterone [6]; eight doses of 1 μg/kg, every three hours (8 μg/kg/day)", "value": "significant decrease"}, {"measurement": "plasma testosterone", "setting": "plasma testosterone [6]; eight doses of 10 μg/kg, every three hours (80 μg/kg/day)", "value": "Castrate levels"}, {"measurement": "AO activity (AOA): rats which ovulate / rats treated", "setting": "ovulation in female rats [3]; dose 1 μg per rat", "value": "4/8@1.0"}, {"measurement": "AO activity (AOA), in words", "setting": "ovulation in female rats [3]", "value": "moderate AO activity"}]}
{"molecule": "Ac-D-Nal^1, 4-Cl-D-Phe^2, D-Trp^3, D-Met(S^+Me)^6, D-Ala^10-LHRH.2TFA [Compound 3879]", "values": [{"measurement": "AO activity (AOA): rats which ovulate / rats treated", "setting": "ovulation in female rats [2]", "value": "6/8@0.5"}, {"measurement": "AO activity (AOA): rats which ovulate / rats treated", "setting": "ovulation in female rats [3]; dose 1 μg per rat", "value": "0/8@1.0"}, {"measurement": "AO activity (AOA), in words", "setting": "ovulation in female rats [3]", "value": "high AOA"}]}
